Data set [1] in a line: Apparent permeability of compound across apical to basal side in vinblastine treated human Caco-2 cells at 1 to 10 uM incubated for 15 to 60 mins by HPLC analysis. Background: Caco-2 cells form a polarised layer with tight junctions and transporters.
Data set [2] is described as follows: Efflux ratio of apparent permeability across basolateral to apical side over apical to basolateral side in vinblastine treated human Caco-2 cells at 1 to 10 uM incubated for 15 to 60 hrs by HPLC analysis.
Data set [3] deals with T1, Vasopressin V1a receptor (Homo sapiens, UniProt P37288).
T1 sequence (P37288 whole entry): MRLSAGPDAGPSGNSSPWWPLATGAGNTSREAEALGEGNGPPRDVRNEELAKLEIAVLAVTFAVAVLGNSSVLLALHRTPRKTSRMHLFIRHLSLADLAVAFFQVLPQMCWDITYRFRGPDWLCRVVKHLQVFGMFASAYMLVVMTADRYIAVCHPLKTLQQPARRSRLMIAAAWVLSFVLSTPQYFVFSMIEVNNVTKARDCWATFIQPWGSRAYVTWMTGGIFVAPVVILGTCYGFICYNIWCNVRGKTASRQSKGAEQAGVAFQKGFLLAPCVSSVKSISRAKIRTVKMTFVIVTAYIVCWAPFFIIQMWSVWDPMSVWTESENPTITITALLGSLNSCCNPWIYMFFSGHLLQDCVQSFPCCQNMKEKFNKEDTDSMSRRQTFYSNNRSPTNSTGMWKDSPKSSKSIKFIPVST
Description: Displacement of [3H]vasopressin from human V1A receptor assessed as inhibition constant by Cheng-Prusoff equation analysis
The target in data set [4] is T1, Vasopressin V1a receptor. The source holds these as a separate data set.
Description: Antagonist activity at human V1A receptor expressed in human 1321N1 cells assessed as Ca2+ mobilization incubated for 15 mins by FLIPR calcium 5 assay
In data set [5] the target is Voltage-gated inwardly rectifying potassium channel KCNH2 (Homo sapiens, UniProt Q12809).
Chain of Voltage-gated inwardly rectifying potassium channel KCNH2 (Q12809 whole entry): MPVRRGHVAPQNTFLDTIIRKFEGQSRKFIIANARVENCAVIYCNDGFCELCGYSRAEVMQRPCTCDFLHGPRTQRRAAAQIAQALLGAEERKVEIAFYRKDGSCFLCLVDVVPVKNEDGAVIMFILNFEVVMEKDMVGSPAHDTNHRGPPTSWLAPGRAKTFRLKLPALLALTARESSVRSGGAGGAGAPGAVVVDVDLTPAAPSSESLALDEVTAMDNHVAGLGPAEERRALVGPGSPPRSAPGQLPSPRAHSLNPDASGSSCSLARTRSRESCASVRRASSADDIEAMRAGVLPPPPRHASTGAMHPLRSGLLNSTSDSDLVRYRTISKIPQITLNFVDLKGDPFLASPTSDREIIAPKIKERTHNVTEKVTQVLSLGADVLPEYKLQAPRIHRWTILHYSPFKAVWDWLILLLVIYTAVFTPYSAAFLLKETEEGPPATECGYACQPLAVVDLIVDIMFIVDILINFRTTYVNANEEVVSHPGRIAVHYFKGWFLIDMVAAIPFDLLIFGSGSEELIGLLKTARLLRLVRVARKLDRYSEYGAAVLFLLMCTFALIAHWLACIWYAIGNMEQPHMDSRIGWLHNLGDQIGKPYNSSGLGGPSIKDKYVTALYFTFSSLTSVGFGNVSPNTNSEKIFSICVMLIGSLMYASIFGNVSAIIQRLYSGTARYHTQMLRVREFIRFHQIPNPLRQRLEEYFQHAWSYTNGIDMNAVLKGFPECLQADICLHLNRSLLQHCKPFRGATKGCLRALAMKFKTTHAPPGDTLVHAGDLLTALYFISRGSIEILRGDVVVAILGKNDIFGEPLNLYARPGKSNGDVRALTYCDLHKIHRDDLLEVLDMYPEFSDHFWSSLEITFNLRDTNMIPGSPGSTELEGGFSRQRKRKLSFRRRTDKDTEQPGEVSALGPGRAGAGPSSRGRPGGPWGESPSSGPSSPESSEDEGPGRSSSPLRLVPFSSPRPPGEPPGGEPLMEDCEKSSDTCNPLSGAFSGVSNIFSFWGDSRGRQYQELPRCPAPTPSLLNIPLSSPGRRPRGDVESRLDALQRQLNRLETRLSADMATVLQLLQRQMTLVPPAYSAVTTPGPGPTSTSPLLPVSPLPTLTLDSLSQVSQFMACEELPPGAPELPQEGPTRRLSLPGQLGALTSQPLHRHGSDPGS
Description: Inhibition of hERG expressed in CHO cells at -80 mV holding potential incubated for 7 to 10 mins by automated patch clamp method
Data set [6] in a line: in vitro. To be noted: Wistar, rat, microsomes.
Data set [7] in a line: in vitro. To be noted: CD-1, mouse, liver microsomes. For orientation: Microsomes from liver hold many membrane-bound enzymes, among them those of drug oxidation.
A short description of data set [8]: animal or person. The settings on record: Mus musculus, NMRI, po, read-out: INH.
A short description of data set [9]: animal or person. The settings on record: Mus musculus, NMRI, po, read-out: INH. The source holds these as a separate data set.
The conditions of data set [10]: human, microsomes, 1 µM.
A short description of data set [11]: in vitro. To be noted: NMRI, mouse, microsomes.
A short description of data set [12]: in vitro. The settings on record: human, microsomes.
A short description of data set [13]: animal or person. The settings on record: Mus musculus, NMRI, read-out: INH.

Consider `CO[C@H]1Cc2cc(Cl)ccc2-n2c(nnc2[C@H]2CC[C@H](Oc3ccccn3)CC2)C1`, for which the Papp A→B at 10 µM in data set [1] worked out at 40 ×10⁻⁶ cm/s. Moreover, the efflux ratio at 10 µM in [2] was 2.7. In addition, the inhibition constant Ki at Vasopressin V1a receptor [3] amounted to 2 nM. The IC50 on Vasopressin V1a receptor [4] turned out to be 0.6 nM; in data set [5], 10200 nM. In addition, the microsomal CLint at 1 µM in the data set “in vitro [6]” was determined as 33 µL/min/mg; in “in vitro [7]”, 66 µL/min/mg. For the same compound, the inhibition in vivo at 10 mg/kg in the data set “animal or person [8]” was 71%. For the same compound, the inhibition in vivo at 3 mg/kg in “animal or person [9]” turned out to be 69%.
With `Clc1ccc2c(c1)CC1(CCOC1)Cc1nnc([C@H]3CC[C@H](Oc4ccccn4)CC3)n1-2` (some centres not stated), affinity on Vasopressin V1a receptor [3] was put at a Ki of 0.3 nM. The compound also yielded an IC50 at Vasopressin V1a receptor [4] of 1.3 nM. In addition, the CLH in data set [10] came to 1.56 mL/h/kg. Further, the results for the intrinsic clearance (microsomal CLint) at 1 µM in “in vitro [6]” and in “in vitro [7]” were 42 µL/min/mg and 80 µL/min/mg, respectively.
On to `O[C@@H]1Cc2cc(Cl)ccc2-n2c(nnc2[C@H]2CC[C@H](Oc3ccccn3)CC2)C1`, for which the Papp A→B at 10 µM in data set [1] turned out to be 23 ×10⁻⁶ cm/s. The efflux ratio at 10 µM in data set [2] was 3.5. In data set [5], this compound gave a half-inhibitory concentration (IC50) of more than 30000 nM. For the same compound, the intrinsic clearance (microsomal CLint) at 1 µM in the data set “in vitro [6]” is 56 µL/min/mg; in “in vitro [11]”, 5 µL/min/mg. Moreover, the inhibition in vivo at 10 mg/kg in the data set “animal or person [8]” came to 84%. Further, the inhibition in vivo at 3 mg/kg in the data set “animal or person [9]” was found to be 75%.
`N#CCC(=O)N[C@@H]1Cc2cc(Cl)ccc2-n2c(nnc2[C@H]2CC[C@H](Oc3ccccn3)CC2)C1`: the Papp A→B at 10 µM in [1] was found to be 0.5 ×10⁻⁶ cm/s. The efflux ratio at 10 µM in [2] is 118. Moreover, the microsomal CLint at 1 µM in “in vitro [12]” came to 13 µL/min/mg; in the data set “in vitro [6]”, 15 µL/min/mg; in “in vitro [7]”, 19 µL/min/mg.
As to `CC(C)(C)C(=O)N[C@@H]1Cc2cc(Cl)ccc2-n2c(nnc2[C@H]2CC[C@H](Oc3ccccn3)CC2)C1`, the figures for the microsomal CLint at 1 µM in the data set “in vitro [12]”, in “in vitro [6]” and in the data set “in vitro [7]” were 49 µL/min/mg, 77 µL/min/mg and 242 µL/min/mg, respectively.
Taken in the same sequence, the figures for `CN(C)CCC(=O)N[C@@H]1Cc2cc(Cl)ccc2-n2c(nnc2[C@H]2CC[C@H](Oc3ccccn3)CC2)C1` were 15 µL/min/mg, 29 µL/min/mg and 96 µL/min/mg.
Take `FC(F)(F)[C@H]1CC[C@H](c2nnc3n2-c2ccc(Cl)cc2CC2(C3)OCCO2)CC1`: the apparent permeability from apical to basolateral (Papp A→B) at 10 µM in data set [1] stood at 39 ×10⁻⁶ cm/s. The efflux ratio at 10 µM in [2] worked out at 1. For the same compound, the half-inhibitory concentration (IC50) in data set [5] was more than 30000 nM. The CLH in [10] worked out at 0.012 mL/h/kg. For the same compound, the microsomal CLint at 1 µM in the data set “in vitro [6]” was determined as 16 µL/min/mg; in the data set “in vitro [11]” it was 34 µL/min/mg. Moreover, the inhibition in vivo at 10 mg/kg in the data set “animal or person [8]” was determined as 41%. In addition, in “animal or person [9]”, the inhibition in vivo at 3 mg/kg amounted to 0%.
Take `Clc1ccc2c(c1)CC1(Cc3nnc([C@H]4CC[C@H](N5CCOCC5)CC4)n3-2)OCCO1`: the Papp A→B at 10 µM in [1] is 4.5 ×10⁻⁶ cm/s. Also, the efflux ratio at 10 µM in data set [2] was determined as 15. The half-maximal inhibitory concentration (IC50) in data set [5] was found to be 3500 nM. For the same compound, the microsomal CLint at 1 µM came to 6 µL/min/mg in “in vitro [6]” and 7 µL/min/mg in “in vitro [7]”.
Regarding `O=C(N[C@@H]1Cc2cc(Cl)ccc2-n2c(nnc2[C@H]2CC[C@H](Oc3ccccn3)CC2)C1)C1CCC1`, the microsomal CLint at 1 µM turned out to be 157 µL/min/mg in the data set “in vitro [12]”, 86 µL/min/mg in “in vitro [6]” and 91 µL/min/mg in “in vitro [7]”.
On to `CN1Cc2cc(Cl)ccc2-n2c(nnc2[C@H]2CC[C@H](Oc3ccccn3)CC2)C1` [BALOVAPTAN], for which, in data set [1], the Papp A→B at 10 µM came to 51 ×10⁻⁶ cm/s. This compound also came in with an IC50 in data set [5] of 21000 nM. This compound also had a CLH in data set [10] of 51 µL/min/mg. The microsomal CLint at 1 µM in the data set “in vitro [6]” came to 17 µL/min/mg; in “in vitro [11]” it was 22 µL/min/mg. In addition, the inhibition in vivo at 10 mg/kg in “animal or person [8]” amounted to 69%. In addition, the inhibition in vivo at 3 mg/kg in the data set “animal or person [9]” was 7%.
Consider `COCC1Cc2cc(Cl)ccc2-n2c(nnc2[C@H]2CC[C@H](Oc3ccccn3)CC2)C1` (some centres not stated), for which, in [1], the apical-to-basolateral permeability (Papp A→B) at 10 µM is 30 ×10⁻⁶ cm/s. Moreover, the efflux ratio at 10 µM in data set [2] is 1. Moreover, the affinity on Vasopressin V1a receptor [3], expressed as Ki, was 0.6 nM. On Vasopressin V1a receptor [4], this compound had an IC50 of 0.8 nM. Moreover, in data set [10], the CLH was 2.76 mL/h/kg. Moreover, in “in vitro [11]”, the intrinsic clearance (microsomal CLint) at 1 µM came out at 126 µL/min/mg.
`CC(C)NC1Cc2ccccc2-n2c(nnc2[C@H]2CC[C@H](Oc3ccccn3)CC2)C1` (some centres not stated) showed a Ki on Vasopressin V1a receptor [3] of 5.6 nM. In addition, the inhibition in vivo at 3 mg/kg in “animal or person [9]” is 18%.
`Clc1ccc2c(c1)CC1(CCCOC1)Cc1nnc([C@H]3CC[C@H](Oc4ccccn4)CC3)n1-2` (some centres not stated): at Vasopressin V1a receptor [3], the Ki was 0.3 nM. At Vasopressin V1a receptor [4], this compound displayed a 50% inhibitory concentration (IC50) of 23 nM. In [10], this compound gave a CLH of 15.4 mL/h/kg. For the same compound, the microsomal CLint at 1 µM in the data set “in vitro [6]” was found to be 267 µL/min/mg; in the data set “in vitro [7]”, 263 µL/min/mg.
Regarding `CC(C)(O)C(=O)N[C@@H]1Cc2cc(Cl)ccc2-n2c(nnc2[C@H]2CC[C@H](Oc3ccccn3)CC2)C1`, the Papp A→B at 10 µM in data set [1] came to 1.8 ×10⁻⁶ cm/s. Also, in data set [2], the efflux ratio at 10 µM turned out to be 37. The microsomal CLint at 1 µM in the data set “in vitro [12]” came to 1 µL/min/mg; in “in vitro [6]”, 3 µL/min/mg; in the data set “in vitro [7]” it was 16 µL/min/mg.
Regarding `Clc1cnc2n1CCCc1nnc([C@H]3CC[C@H](Oc4ccccn4)CC3)n1-2`, the efflux ratio at 10 µM in data set [2] is 0.8. This compound also came in with an IC50 on Vasopressin V1a receptor [4] of 178 nM. This compound also displayed a CLH in data set [10] of 41 µL/min/mg. For the same compound, the intrinsic clearance (microsomal CLint) at 1 µM in the data set “in vitro [6]” came to 12 µL/min/mg; in the data set “in vitro [11]”, 15 µL/min/mg. Further, the inhibition in vivo at 10 mg/kg in the data set “animal or person [13]” is 32%.
On to `CC(=O)N[C@@H]1Cc2cc(Cl)ccc2-n2c(nnc2[C@H]2CC[C@H](Oc3ccccn3)CC2)C1`, for which, in data set [1], the Papp A→B at 10 µM is 2.7 ×10⁻⁶ cm/s. In addition, in [2], the efflux ratio at 10 µM is 14. Further, the microsomal CLint at 1 µM in the data set “in vitro [12]” is 0.2 µL/min/mg; in “in vitro [6]”, 1 µL/min/mg; in “in vitro [7]”, 4 µL/min/mg.
Turning to `O=C(N[C@@H]1Cc2cc(Cl)ccc2-n2c(nnc2[C@H]2CC[C@H](Oc3ccccn3)CC2)C1)C1CCC(F)(F)CC1`, the results for the microsomal CLint at 1 µM in “in vitro [12]”, in “in vitro [6]” and in “in vitro [7]” were 34 µL/min/mg, 32 µL/min/mg and 154 µL/min/mg, respectively.
For `O=C(N[C@@H]1Cc2cc(Cl)ccc2-n2c(nnc2[C@H]2CC[C@H](Oc3ccccn3)CC2)C1)C1CC1`, in data set [1], the apical-to-basolateral permeability (Papp A→B) at 10 µM was determined as 4.3 ×10⁻⁶ cm/s. Also, the efflux ratio at 10 µM in data set [2] turned out to be 14.6. The microsomal CLint at 1 µM was 1 µL/min/mg in “in vitro [12]”, 1 µL/min/mg in “in vitro [6]” and 22 µL/min/mg in “in vitro [7]”.
In turn, `Clc1ccc2c(c1)CC1(Cc3nnc([C@H]4CC[C@H](Oc5ccccn5)CC4)n3-2)OCCCCO1` registered a concentration for half-maximal inhibition (IC50) on Vasopressin V1a receptor [4] of 1.1 nM. Also, the CLH in [10] was 10.2 mL/h/kg. The microsomal CLint at 1 µM was determined as 229 µL/min/mg in “in vitro [6]” and 211 µL/min/mg in the data set “in vitro [11]”.
For `O=C(N[C@@H]1Cc2cc(Cl)ccc2-n2c(nnc2[C@H]2CC[C@H](Oc3ccccn3)CC2)C1)C(F)(F)F`, in data set [1], the Papp A→B at 10 µM is 11 ×10⁻⁶ cm/s. In addition, in data set [2], the efflux ratio at 10 µM was 2.9. The values for the microsomal CLint at 1 µM in “in vitro [12]”, in “in vitro [6]” and in “in vitro [7]” were 2 µL/min/mg, 4 µL/min/mg and 18 µL/min/mg, respectively.
For `O=C1Cc2cc(Cl)ccc2-n2c(nnc2[C@H]2CC[C@H](Oc3ccccn3)CC2)C1`, the IC50 in [5] was more than 30000 nM. This compound came in with a CLH in data set [10] of 7.44 mL/h/kg. Moreover, the microsomal CLint at 1 µM in “in vitro [6]” amounted to 43 µL/min/mg; in the data set “in vitro [11]” it was 36 µL/min/mg. Also, the inhibition in vivo at 10 mg/kg in the data set “animal or person [8]” came out at 70%. Moreover, in the data set “animal or person [9]”, the inhibition in vivo at 3 mg/kg came out at 58%.

Broadly, the Papp A→B is the apparent permeability from the apical to the basolateral side of a cell layer. What is called efflux ratio is the permeability from basolateral to apical divided by that in the opposite direction, in the common usage. Usually Ki stands for a measure of affinity in units of concentration, obtained from inhibition or displacement. High values mean a looser hold on the target, low ones a stronger hold on the target. One may read the IC50 as the concentration at which inhibition is half-maximal. Low readings indicate higher potency, high ones lower potency. The term microsomal CLint denotes the rate of metabolic loss divided by the concentration. A low value points to greater metabolic stability.

These data come from ChEMBL document CHEMBL5532679, “Discovery and Characterization of RGH-122, a Potent, Selective, and Orally Bioavailable V1a Receptor Antagonist” (J Med Chem, 2024).
